From US5635519A, “Benzothiazole compounds which are substituted by pyridymethyl” (Eisai Co., Ltd., priority 1991, dated 1997)
pIC50: −log10 of the molar value. “Also recorded” adds a separate entry of the source. Counter-ions that a name gives are not always drawn.

Legend:
[1] = tested on: LTB4; experiment: Suppressing production of leukotriene B4 (LTB4) from rat peritoneal exudation cells; assay type: cell-based; settings: A23187 2 μg/ml, read-out: Production suppressing function IC50, LTB4
Description: (§1) After 20 to 24 hours, peritoneal exudation cells were collected from the rats, washed and suspended in the Hank's buffer salt solution (HESS) at a concentration of 5×10^6 /ml. Then 100 μl/well of the obtained cell suspension was […] into a 96-well culture plate (Costar^R) containing 10 μl/well of a sample drug diluted to a given concentration. The plate was incubated at 37° C. for 5 minutes and A23187 (CALBIOCHEM®) was added thereto so as to give a final concentration of 2 μg/ml. After incubating at 37° C. for additional 10 minutes, the plate was transferred on ice and a B[…] solution was added thereto so as to give a final concentration of 100 μM. This plate was centrifuged at 15,000 rpm for 10 minutes and the supernatant was collected. Then the LTB4, TxB2 and PGE2 present in the supernatant were determined by enzyme immunoassay with the use of an EIA Kit manufactured by CAYMAN.

[2] = tested on: TxB2; experiment: Suppressing production of thromboxane B2 (TxB2) from rat peritoneal exudation cells; assay type: cell-based; settings: A23187 2 μg/ml, read-out: Production suppressing function IC50, TxB2
Description: as §1

[3] = tested on: PGE2; experiment: Effect on production of prostaglandin E2 (PGE2) from rat peritoneal exudation cells; assay type: cell-based; settings: A23187 2 μg/ml
Description: as §1

[4] = tested on: LTB4; experiment: Suppressing production and liberation of LTB4 from TNB-colitis rat colon; assay type: in vivo; settings: 100 mg/kg oral, 6 hours, A23187 5 μg/ml
Description: (§2) Functions of suppressing production and liberation of LTB4 and TxB2 from TNB (trinitrobenzenesulfonic acid)-colitis rat colon Rat TNB-colitis was induced in accordance with the method reported by Morris et al. [Gastroenterology, 96, 795-803 (1989)]. Namely, each of male F344 rats aged 9 weeks was fasted for 2 days and then etherized. A sound (1.2×80 mm, manufactured by Fuehigami Kikai-ten) was inserted into the rectum of the animal to inject 0.25 ml of a 120 mg/ml solution of TNB (a product of Tokyo Kasei K. K.) in 50% ethanol into the colon cavity. The effects of each compound on the production and liberation of LTB4 and TxB2 from the colon of the TNB-colitis rat were evaluated by using the rat 7 days after the injection of TNB. Namely, each compound (5% suspension in methylcellulose) was orally administered to the rat in a dose of 0.5 ml/100 g body weight. After 6 hours, the animal was deeply deeply etherlzed and subjected to autopsy. Thus the colon tissue was extirpated. The colon was incubated in Tyrode's solution (CALBIOCHEM containing 5 μg/ml of A23187-calcium ionophore) at 37° C. for 20 minutes in accordance with the method of […] et al. [Biochim. Biophys. Acta, 878, 184-193 (1986)]. Then LTB4, TxB2 and PGE2 thus produced and liberated into the medium were determined by radioimmunoassay (RXA).

[5] = tested on: TxB2; experiment: Suppressing production and liberation of TxB2 from TNB-colitis rat colon; assay type: in vivo; settings: 100 mg/kg oral, 6 hours, A23187 5 μg/ml
Description: as §2

[6] = tested on: PGE2; experiment: Suppressing production and liberation of PGE2 from TNB-colitis rat colon; assay type: in vivo; settings: 100 mg/kg oral, 6 hours, A23187 5 μg/ml
Description: as §2

[7] = tested on: TNB-colitis; experiment: Therapeutic effects on TNB-colitis (MPO in colon); assay type: in vivo, rat; settings: once a day for 11 days
Description: Therapeutic effects on TNB-colitis
Rat TNB-colitis was induced in accordance with the method reported by Morris et al. [Gastroenterology, 96, 795-808 (1989)]. Namely, each of male F344 rats aged 9 weeks was fasted for 2 days and then etherized. A sound (1.2×80 mm, manufactured by Fuchigami Kikai-ten) was inserted into the rectum of the animal to inject 0.25 ml of a 120 mg/ml solution of TNB (a product of Tokyo Kasei K. K.) in 50% ethanol into the colon cavity. 3 days after the injection of TNB, each compound (5% suspension in methylcellulose) was orally administered once a day for 11 days. 14 days after the injection of TNB, the animal was subjected to autopsy and the colon was extirpated. The extent of damage to the colon was evaluated by determining MPO (myeloperoxidase) present therein.
The therapeutic ratio was calculated according to the following equation:
therapeutic ratio=(5% methylcellulose group-ethanol group)-(invention
compound group-ethanol group).

[8] = tested on: rats; experiment: Toxicity test, 28 days repeated administration; assay type: in vivo, rat; settings: 200 mg/kg once a day for 28 days

Compound	pIC50 [1]	pIC50 [2]	Production suppressing function, PGE2 (in words) [3]	Suppression ratio (%), LTB4 [4]	Suppression ratio (%), TxB2 [5]	Suppression ratio (%), PGE2 [6]	Therapeutic ratio (%) ([7]; 100 mg/kg/day oral)	Therapeutic ratio (%) ([7]; 10 mg/kg/day oral)	Production suppressing function, PGE2 (in words) ([3]; dihydrochloride)	abnormality caused by the administration [8]
Cc1cc(O)c(C)c2sc(NCc3cccnc3)nc12 [Example 5, 6-Hydroxy-4,7-dimethyl-2-(3-pyridylmethyl)aminobenzothiazole]	> 7.00	5.36	enhanced at 0.1-10 μM; also recorded: suppressed at 100 μM	94%	36%	30%	53%			
Cc1c(O)c(Cc2cccnc2)c2sc(N)nc2c1C.Cl.Cl [Example 15, 2-Amino-6-hydroxy-4,5-dimethyl-7-(3-pyridylmethyl)benzothiazole dihydrochloride]	6.60	5.27	enhanced at 0.1-100 μM							
C[C@]12C=CC(=O)C=C1CC[C@@H]1[C@@H]2[C@@H](O)C[C@@]2(C)[C@H]1CC[C@]2(O)C(=O)CO [prednisolone, reference compound]								60%		
CNc1nc2c(Cc3cccnc3)c(OC)c(O)c(C)c2s1 [Example 21, 6-Hydroxy-5-methoxy-7-methyl-2-methylamino-4-(3-pyridylmethyl)benzothiazoledihydrochloride]	6.77	5.89								
COc1c(O)c(C)c2sc(N)nc2c1Cc1cccnc1 [Example 20, 2-Amino-6-hydroxy-5-methoxy-7-methyl-4-(3-pyridylmethyl)benzothiazole dihydrochlorlde]	6.77	6.96	enhanced at 0.1-100 μM							
CCc1c(O)c(OC)c(Cc2cccnc2)c2nc(NC)sc12.Cl.Cl [Example 23, 7-Ethyl-6-hydroxy-5-methoxy-2-methylamino-4-(3-pyridylmethyl)benzothiazole dihydrochloride]	> 7.00	6.48							enhanced at 0.1-10 μM; also recorded: suppressed at 100 μM	
CCNc1nc2c(Cc3cccnc3)c(C)c(O)c(C)c2s1.Cl.Cl [Example 11, 2-Ethylamino-6-hydroxy-5,7-dimethyl-4-(3-pyridylmethyl)benzothiazole dihydrochloride]	> 7.00	7.00		94%	85%	0%	41%		enhanced at 0.1-10 μM; also recorded: suppressed at 100 μM	
CCc1c(O)c(OC)c(Cc2cccnc2)c2nc(N)sc12 [Example 22, 2-Amino-7-ethyl-6-hydroxy-5-methoxy-4-(3-pyridylmethyl)benzothiazole dihydrochloride]	6.82	6.74								
CCNc1nc2c(C)c(Cc3cccnc3)c(O)c(C)c2s1 [Example 14, 2-Ethylamino-6-hydroxy-4,7-dimethyl-5-(3-pyridylmethyl)benzothiazole]	6.64	6.19	enhanced at 0.1-1 μM; also recorded: suppressed at 100 μM	83%	67%	8%	32%			
Cc1c(O)c(C)c2sc(NCc3cccnc3)nc2c1C [Example 4, 6-Hydroxy-4,5,7-trimethyl-2-(3-pyridylmethyl)aminobenzothiazole]	> 7.00	5.71	enhanced at 0.1-1 μM; also recorded: suppressed at 10 μM or above	93%	72%	30%	31%			
CCNc1nc2c(C)c(C)c(O)c(Cc3cccnc3)c2s1 [Example 17, 2-Ethylamino-6-hydroxy-4,5-dimethyl-7-(3-Pyridylmethyl)benzothiazole]	> 7.00	5.70	enhanced at 1 μM; also recorded: suppressed at 100 μM	89%	53%	41%	40%			
COc1cc2nc(NCc3cccnc3)sc2c(OC)c1O [Example 1, 6-Hydroxy-5,7-dimethoxy-2-(3-pyridylmethyl)aminobenzothiazole]	7.05	5.26	enhanced at 1-10 μM; also recorded: suppressed at 100 μM	19%	55%	10%				
CNc1nc2c(Cc3cccnc3)c(C)c(O)c(C)c2s1 [Example 10, 6-Hydroxy-5,7-dimethyl-2-methylamino-4-(3-pyridylmethyl)benzothiazole]			enhanced at 0.1-10 μM							no abnormality caused by the administration of the drug was observed
CCCNc1nc2c(Cc3cccnc3)c(C)c(O)c(C)c2s1.Cl.Cl [Example 12, 6-Hydroxy-5,7-dimethyl-2-propylamino-4-(3-pyridylmethyl)benzothiazole dihydrochloride]	> 7.00	7.05							enhanced at 0.1-10 μM; also recorded: suppressed at 100 μM	
CNc1nc2c(C(OC(C)=O)c3cccnc3)c(C)c(O)c(C)c2s1 (centres unmarked) [Example 9, {4-(6-Hydroxy-5,7-dimethyl-2-methylamino)benzothiazoyl}-(3-pyridyl)methyl acetate]	6.42	6.14	enhanced at 0.1-100 μM							
Cc1c(O)c(C)c2sc(N)nc2c1Cc1cccnc1 [Example 18, 2-Amino-6-hydroxy-5,7-dimethyl-4-(3-pyridylmethyl)benzothiazole dihydrochloride]	6.72	8.70								
